The text below walks through data of patent US20060052413A1, “Novel piperidine derivatives as modulators of chemokine receptor ccr5” (priority 2002, published 2006).

In the experiment the target is recombinant human CCR5 receptor (Homo sapiens, UniProt P51681). Kind of experiment: MIP-1α radioligand binding assay (scintillation proximity), CHO cell membranes. Conditions: displacement of 0.1 nM iodinated MIP-1α; negative log10 of IC50; average if tested more than once. As for the experimental part:
The ability of compounds to inhibit the binding of MIP-1α was assessed by an in vitro radioligand binding assay. Membranes were prepared from Chinese hamster ovary cells which expressed the recombinant human CCR5 receptor. These membranes were incubated with 0.1 nM iodinated MIP-1α, scintillation proximity beads and various concentrations of the compounds of the invention in 96-well plates. The amount of iodinated MIP-1α bound to the receptor was determined by scintillation counting. Competition curves were obtained for compounds and the concentration of compound which displaced 50% of bound iodinated MIP-1α was calculated (IC50).
In Table II the results are presented as Pic50 values. A Pic50 value is the negative log (to base 10) of the IC50 result, so an IC50 of 1 μM (that is 1×10^−6M) gives a Pic50 of 6. If a compound was tested more than once then the data below is an average of the probative tests results.
For orientation: In a scintillation proximity assay essentially only radioactivity close to the scintillant gives light.

Chain of recombinant human CCR5 receptor (P51681 whole entry): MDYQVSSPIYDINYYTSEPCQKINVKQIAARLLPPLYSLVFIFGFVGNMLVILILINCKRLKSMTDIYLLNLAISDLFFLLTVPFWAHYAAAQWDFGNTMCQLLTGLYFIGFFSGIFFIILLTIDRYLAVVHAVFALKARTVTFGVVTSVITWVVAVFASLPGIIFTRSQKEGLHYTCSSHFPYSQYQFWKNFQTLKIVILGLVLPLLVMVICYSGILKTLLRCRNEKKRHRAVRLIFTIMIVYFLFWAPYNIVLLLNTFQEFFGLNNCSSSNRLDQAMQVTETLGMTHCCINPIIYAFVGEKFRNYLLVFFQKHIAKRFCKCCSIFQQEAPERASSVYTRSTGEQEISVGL

Usually IC50 stands for the concentration needed to halve the response being measured. Turning to `CCS(=O)(=O)N1CCN(C(CCN2CCC(CCCc3ccccc3)CC2)c2ccccc2)CC1` (stereo not shown) [Compound 3], the IC50 is 0.0977 µM.
